Results taken from ChEMBL document CHEMBL4616668, “Discovery of a High Affinity, Orally Bioavailable Macrocyclic FXIa Inhibitor with Antithrombotic Activity in Preclinical Species” (J Med Chem, 2020).

How the values were obtained:
Plasma [1] = test: Anticoagulant activity in human plasma assessed as activated partial thromboplastin time; type: functional
[2] = Half life in rat liver microsomes; type: ADME, Microsome
[3] = Half life in dog liver microsomes; type: ADME, Canis lupus familiaris, Microsome
[4] = Half life in cynomolgus monkey liver microsomes; type: ADME, Macaca fascicularis, Microsome
[5] = Clearance in Sprague-Dawley rat at 0.6 mg/kg, iv; type: ADME, organism-based; settings: in vivo
[6] = Oral bioavailability in Sprague-Dawley rat at […]; type: ADME, organism-based; settings: in vivo
Coagulation factor XI = Coagulation factor XI (Homo sapiens, UniProt P03951); test: Inhibition of human factor11a using pyro-Glu-Pro-Arg-pNA(para-nitroaniline) substrate by spectrophotometry
[7] = Half life in human liver microsomes; type: ADME, Microsome
[8] = Clearance in Beagle dog at 0.4 mg/kg, iv; type: ADME, organism-based, Canis lupus familiaris; settings: in vivo
[9] = Clearance in cynomolgus monkey at 0.5 mg/kg, iv; type: ADME, organism-based, Macaca fascicularis; settings: in vivo
[10] = Terminal half life in Sprague-Dawley rat at 0.6 mg/kg, iv; type: ADME, organism-based; settings: in vivo, read-out: beta t1/2 (converted)
[11] = Terminal half life in Beagle dog at 0.4 mg/kg, iv; type: ADME, organism-based, Canis lupus familiaris; settings: in vivo, read-out: beta t1/2 (converted)
[12] = Terminal half life in cynomolgus monkey at 0.5 mg/kg, iv; type: ADME, organism-based, Macaca fascicularis; settings: in vivo, read-out: beta t1/2 (converted)
[13] = Apparent volume of distribution at steady-state in Sprague-Dawley rat at 0.6 mg/kg, iv; type: ADME, organism-based; settings: in vivo, read-out: Vdss(app)
[14] = Apparent volume of distribution at steady-state in Beagle dog at 0.4 mg/kg, iv; type: ADME, organism-based, Canis lupus familiaris; settings: in vivo, read-out: Vdss(app)
[15] = Apparent volume of distribution at steady-state in cynomolgus monkey at 0.5 mg/kg, iv; type: ADME, organism-based, Macaca fascicularis; settings: in vivo, read-out: Vdss(app)
[16] = Oral bioavailability in Beagle dog at 1.1 mg/kg; type: ADME, organism-based, Canis lupus familiaris; settings: in vivo
[17] = Oral bioavailability in cynomolgus monkey at 1.5 mg/kg; type: ADME, organism-based, Macaca fascicularis; settings: in vivo
[18] = AUC in Sprague-Dawley rat at 0.6 mg/kg, iv; type: ADME, organism-based; settings: in vivo
[19] = AUC in Beagle dog at 0.4 mg/kg, iv; type: ADME, organism-based, Canis lupus familiaris; settings: in vivo
[20] = AUC in cynomolgus monkey at 0.5 mg/kg, iv; type: ADME, organism-based, Macaca fascicularis; settings: in vivo
[21] = AUC in Sprague-Dawley rat at […], po; type: ADME, organism-based; settings: in vivo
[22] = AUC in Beagle dog at 1.1 mg/kg, po; type: ADME, organism-based, Canis lupus familiaris; settings: in vivo
[23] = AUC in cynomolgus monkey at 1.5 mg/kg, po; type: ADME, organism-based, Macaca fascicularis; settings: in vivo
[24] = Permeability form apical to basolateral side in human Caco2 cells; type: ADME, cell-based; settings: Caco-2, read-out: permeability
[25] = Permeability form basolateral to apical side in human Caco2 cells; type: ADME, cell-based; settings: Caco-2, read-out: permeability
[26] = Toxicity in New Zealand White rabbit model of cuticle bleeding time assessed as increase in cuticle bleeding time at 4 mg/kg/hr dosed as continuous intravenous infusion 30 to 60 mins prior to cuticle transection relative to control; type: organism-based, Oryctolagus cuniculus; settings: in vivo
Plasma [27] = test: Anticoagulant activity in rabbit plasma assessed as activated partial thromboplastin time; type: functional, Oryctolagus cuniculus

Coagulation factor XI, sequence (P03951 19-387 limits assumed): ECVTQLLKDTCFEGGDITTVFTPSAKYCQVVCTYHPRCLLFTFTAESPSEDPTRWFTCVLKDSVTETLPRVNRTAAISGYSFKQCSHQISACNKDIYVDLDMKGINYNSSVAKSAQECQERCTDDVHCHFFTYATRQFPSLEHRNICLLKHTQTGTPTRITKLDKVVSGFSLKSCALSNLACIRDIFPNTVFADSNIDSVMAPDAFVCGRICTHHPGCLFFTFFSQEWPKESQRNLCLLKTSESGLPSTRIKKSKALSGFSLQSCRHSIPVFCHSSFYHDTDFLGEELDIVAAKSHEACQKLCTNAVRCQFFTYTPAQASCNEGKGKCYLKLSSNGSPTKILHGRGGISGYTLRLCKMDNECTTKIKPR
Coagulation factor XI, sequence (P03951 388-625 limits assumed): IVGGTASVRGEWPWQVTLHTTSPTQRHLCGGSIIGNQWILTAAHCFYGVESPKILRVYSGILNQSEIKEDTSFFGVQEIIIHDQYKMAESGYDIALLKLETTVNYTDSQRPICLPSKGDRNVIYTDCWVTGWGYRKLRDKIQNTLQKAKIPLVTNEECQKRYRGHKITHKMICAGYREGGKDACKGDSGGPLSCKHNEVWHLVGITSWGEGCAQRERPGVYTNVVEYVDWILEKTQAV

half-life [2]	half-life [3]	half-life [4]	Ki (Coagulation factor XI)	half-life [7]	SMILES	EC1.5 (Plasma [1])	also measured
35 min	27 min	12 min	0.6 nM	56 min	COC(=O)Nc1ccc2c(c1)NC(=O)[C@H](C)CCC[C@H](N1CC[C@H](c3c(F)ccc(Cl)c3F)OC1=O)c1cc-2ccn1	0.5 µM	clearance [5]: 23 mL/min/kg; bioavailability [6]: 37%
15 min	13 min	3 min	0.9 nM	8 min	COC(=O)Nc1ccc2c(c1)NC(=O)[C@H](C)CCC[C@H](N1CCC(c3c(F)ccc(Cl)c3F)CC1=O)c1cc-2ccn1 (mixture of isomers)	2.8 µM	–
6 min	15 min	–	2.7 nM	9 min	COC(=O)Nc1ccc2c(c1)NC(=O)[C@H](C)CCC[C@H](N1CC[C@H](c3c(F)ccc(Cl)c3F)OC1=O)c1cc-2cnc1F	1.2 µM	–
48 min	38 min	17 min	0.7 nM	55 min	COC(=O)Nc1ccc2c(c1)NC(=O)[C@H](C)CCC[C@H](N1CC[C@H](c3c(F)ccc(Cl)c3F)OC1=O)c1ncc-2[nH]1	0.6 µM	clearance [5]: 33 mL/min/kg; clearance [8]: 38 mL/min/kg; clearance [9]: 56 mL/min/kg; half-life [10]: 84 min; half-life [11]: 114 min; half-life [12]: 84 min; Vd [13]: 3.2 L/kg; Vd [14]: 5.1 L/kg; Vd [15]: 9.2 L/kg; bioavailability [6]: 54%; bioavailability [16]: 57%; bioavailability [17]: 29%; AUC [18]: 0.52 µM·h; AUC [19]: 0.285 µM·h; AUC [20]: 0.233 µM·h; AUC [21]: 0.687 µM·h; AUC [22]: 0.446 µM·h; AUC [23]: 0.263 µM·h; Papp A→B [24]: 3.8 ×10⁻⁶ cm/s; Papp B→A [25]: 23.8 ×10⁻⁶ cm/s
9 min	21 min	2 min	1.8 nM	17 min	COC(=O)Nc1ccc2c(c1)NC(=O)[C@H](C)CCC[C@H](N1CC[C@H](c3c(F)ccc(Cl)c3F)OC1=O)c1cncc-2c1	0.6 µM	–
29 min	44 min	9 min	1.6 nM	36 min	COC(=O)Nc1ccc2c(c1)NC(=O)[C@H](C)CCC[C@H](N1CC[C@H](c3c(F)ccc(Cl)c3F)OC1=O)c1ccnc-2c1	0.5 µM	clearance [5]: 33 mL/min/kg; bioavailability [6]: 48%
55 min	72 min	27 min	4.9 nM	75 min	COC(=O)Nc1ccc2c(c1)NC(=O)[C@H](C)CCC[C@H](N1CC(=O)N(c3c(F)ccc(Cl)c3F)CC1=O)c1cc-2ccn1	1.4 µM	–
–	–	–	–	–	COC(=O)Nc1ccc2c(c1)NC(=O)[C@H](C)CCC[C@H](N1CCC(c3c(F)ccc(Cl)c3F)=CC1=O)c1cc-2ccn1	1.8 µM	–
–	–	–	–	–	CC(=O)Oc1ccccc1C(=O)O [ASPIRIN]	–	fold change (FC) [26]: 2.3
60 min	64 min	80 min	14 nM	76 min	COC(=O)Nc1ccc2c(c1)NC(=O)[C@H](C)CCC[C@H](N1CCN(c3c(F)ccc(Cl)c3F)C(=O)C1=O)c1cc-2ccn1	4.3 µM	–
–	–	–	–	–	COC(=O)Nc1ccc2c(c1)NC(=O)[C@H](C)CCC[C@H](N1CCC(c3c(F)ccc(Cl)c3F)=CC1=O)c1cc-2ccn1.O=C(O)C(F)(F)F	–	EC1.5 (Plasma [27]): 26 µM
9 min	6 min	1 min	4.5 nM	4 min	COC(=O)Nc1ccc2c(c1)NC(=O)[C@H](C)CCC[C@H](N1CCN(c3c(F)ccc(Cl)c3F)CC1=O)c1cc-2ccn1	4.6 µM	–
40 min	27 min	2 min	0.5 nM	17 min	COC(=O)Nc1ccc2c(c1)NC(=O)[C@H](C)CCC[C@H](N1CCC(c3c(F)ccc(Cl)c3F)NC1=O)c1cc-2ccn1 (stereo partly specified)	7.5 µM	–
